Data as given in paper PMC11279807, “Modulation of the Antimelanoma Activity Imparted to Artemisinin Hybrids by the Monoterpene Counterpart” (Molecules, 2024).
Read-outs that look alike come from different tables or passages of the source.

Columns and labels:
Format in all cases: cell-based, human
[1] = tested on: C3PV; assay: MTT cell viability assay on normal fibroblasts C3PV; conditions: 24 h treatment, triplicates, read-out: IC50 (µM ± SD) C3PV
Procedure: (§1) The primary human healthy fibroblast C3PV cell line was grown in a culture medium containing 50% Dulbecco Modified Medium (DMEM) and 50% Ham’s F10 supplemented with 10% Fetal Bovine Serum (FBS). […] To all growing media were added 1% Pen/Strep and 1% Glutamine.
To study the effect of artemisinin derivatives on cell viability, MTT assay was performed. Briefly, C3PV, WM115, and WM266 cell lines were seeded in 96-well plates (3000 cells/well in 100 μL of medium) 24 h before treatment and incubated overnight to allow for cell adherence. […] The analyses of cell viability were performed at the end of the treatment. Triplicates were made in all experiments. After 24 h of treatment with newly synthesized compounds, the culture medium was replaced with a solution containing 0.5 mg/mL of MTT. After 3 h of incubation in an incubator, the medium was removed, and a lysis solution (10% SDS, 0.6% acetic acid in DMSO) was added to dissolve the formazan crystals. Optical density measurements were performed with a microplate reader EPOCH/2 (Biotek) with 630 nm (background) and a 570 nm filters.
(§2) The IC50 values were determined via non-linear regression, using the GraphPad Prism software package version 8 (GraphPad Software, San Diego, CA, USA). Results were expressed as means of IC50 values ± SD. The TSI values were calculated using the following formula: […]

[2] = tested on: WM266; assay: MTT cell viability assay on metastatic melanoma cell line WM266; conditions: for IC50: metastatic melanoma WM266, MTT, 24 h treatment, triplicates, read-out: IC50 (µM ± SD) WM266; for TSI WM266: tumor selectivity index = IC50 on C3PV / IC50 on WM266
Procedure: as §1
(§3) To study the effect of artemisinin derivatives on cell viability, MTT assay was performed. Briefly, C3PV, WM115, and WM266 cell lines were seeded in 96-well plates (3000 cells/well in 100 μL of medium) 24 h before treatment and incubated overnight to allow for cell adherence. Afterward, the medium was replaced with a fresh one containing the appropriate dose of newly synthesized compounds (doses ranging from 0.01 to 1 μM were used for 24 h). The analyses of cell viability were performed at the end of the treatment. Triplicates were made in all experiments. After 24 h of treatment with newly synthesized compounds, the culture medium was replaced with a solution containing 0.5 mg/mL of MTT. After 3 h of incubation in an incubator, the medium was removed, and a lysis solution (10% SDS, 0.6% acetic acid in DMSO) was added to dissolve the formazan crystals. Optical density measurements were performed with a microplate reader EPOCH/2 (Biotek) with 630 nm (background) and a 570 nm filters.
as §2

[3] = tested on: WM115; assay: MTT cell viability assay on primary melanoma cell line WM115; conditions: for IC50: primary melanoma WM115, MTT, 24 h treatment, triplicates, read-out: IC50 (µM ± SD) WM115; for TSI WM115: tumor selectivity index = IC50 on C3PV / IC50 on WM115
Procedure: as §1, §3, §2

SMILES | IC50 ([1]; Homo sapiens, C3PV, 24 h) [µM] | IC50 ([2]; Homo sapiens, WM266, 24 h) [µM] | TSI WM266 [2] | IC50 ([3]; Homo sapiens, WM-115, 24 h) [µM] | TSI WM115 [3] | TSI WM266 ([2]; listed as citronellol (±)-6) | IC50 ([1]; Homo sapiens) [µM] | IC50 ([2]; Homo sapiens) [µM] | IC50 ([3]; Homo sapiens, WM-115) [µM] | IC50 [1] [µM] | IC50 [2] [µM] | IC50 [3] [µM] | fold lower antimelanoma effect compared to the corresponding compounds 9c and f ([2]; WM266, 2-deoxy analogue vs. corresponding DHA hybrid) [fold]
CC(C)=CCCC(C)CCOC(=O)CCC(=O)OC1OC2OC3(C)CCC4C(C)CCC(C1C)C24OO3 (mixture of isomers) [Hybrid 10c] | 4.4 ± 2.9 | 0.6 ± 0.02 | 7.3 | 1.3 ± 0.9 | 3.4 |  |  |  |  |  |  |  | 
CC(C)=CCCC(C)CCO (racemic) [(±)-citronellol (±)-6, (±)-citronellol, reference compound] | 3 ± 1.2 | 0.3 ± 0.23 | 10.0 | 2.6 ± 0.05 | 1.2 | 10 |  |  |  |  |  |  | 
CC(C)=CCC[C@@H](C)CCO [(+)-citronellol (+)-6, (+)-citronellol, reference compound] | 1.9 ± 0.8 | 0.6 ± 0.02 | 3.2 | 1.5 ± 0.07 | 1.3 |  |  |  |  |  |  |  | 
CC(C)=CCC[C@H](C)CCO [(-)-citronellol (-)-6, (-)-citronellol, reference compound] | 1 ± 0.9 | 0.5 ± 0.3 | 2.0 | 0.9 ± 0.03 | 1.1 |  |  |  |  |  |  |  | 
C[C@H]1[C@H](OC(=O)CCC(=O)O)O[C@@H]2O[C@@]3(C)CC[C@H]4[C@H](C)CC[C@@H]1[C@@]24OO3 [ARTA 3, artesunic acid, reference compound] | 1.7 ± 0.44 | 1.3 ± 0.2 | 1.3 | 1.5 ± 0.01 | 1.1 |  |  |  |  |  |  |  | 
C[C@H]1[C@@H](O)O[C@@H]2O[C@@]3(C)CC[C@H]4[C@H](C)CC[C@@H]1[C@@]24OO3 [DHA 2, dihydroartemisinin, reference compound] | 0.7 ± 0.19 | 1.6 ± 0.03 | 0.4 | 1.6 ± 0.4 | 0.4 |  |  |  |  |  |  |  | 
C=CCc1ccc(O)c(OC)c1 [Eugenol 4, eugenol, reference compound] |  |  | 1.1 |  | 0.3 |  | 1 ± 0.1 | 0.9 ± 0.05 | 3 ± 0.02 |  |  |  | 
CC(C)=CCC/C(C)=C/CO [Geraniol 8, geraniol, reference compound] | 0.5 ± 0.02 | 0.5 ± 0.09 | 1.0 | 0.5 ± 0.01 | 1.0 |  |  |  |  |  |  |  | 
C=CCc1ccc(O[C@H]2O[C@@H]3O[C@@]4(C)CC[C@H]5[C@H](C)CC[C@@H]([C@H]2C)[C@@]35OO4)c(OC)c1 [Hybrid 9a] | 0.7 ± 0.04 | 1 ± 0.09 | 0.7 | 0.1 ± 0.01 | 7.0 |  |  |  |  |  |  |  | 
C=C(C)C1CC=C(CO[C@H]2O[C@@H]3O[C@@]4(C)CC[C@H]5[C@H](C)CC[C@@H]([C@H]2C)[C@@]35OO4)CC1 (some centres unmarked) [Hybrid 9b] | 0.3 ± 0.1 | 0.2 ± 0.01 | 1.5 | 0.2 ± 0.01 | 1.5 |  |  |  |  |  |  |  | 
CC(C)=CCC[C@@H](C)CCO[C@H]1O[C@@H]2O[C@@]3(C)CC[C@H]4[C@H](C)CC[C@@H]([C@H]1C)[C@@]24OO3 [Hybrid 9d] | 51 ± 0.3 | 2.7 ± 0.2 | 18.9 | 2.9 ± 0.6 | 17.6 |  |  |  |  |  |  |  | 
CC(C)=CCC[C@H](C)CCO[C@H]1O[C@@H]2O[C@@]3(C)CC[C@H]4[C@H](C)CC[C@@H]([C@H]1C)[C@@]24OO3 [Hybrid 9e] | 50 ± 0.03 | 2.2 ± 0.6 | 22.7 | 2.4 ± 0.1 | 20.8 |  |  |  |  |  |  |  | 
CC(C)=CCC/C(C)=C/CO[C@H]1O[C@@H]2O[C@@]3(C)CC[C@H]4[C@H](C)CC[C@@H]([C@H]1C)[C@@]24OO3 [Hybrid 9g] | 6.2 ± 0.7 | 13.4 ± 1.5 | 0.5 | 14.5 ± 1.1 | 0.4 |  |  |  |  |  |  |  | 
C=CCc1ccc(OC(=O)CCC(=O)OC2OC3OC4(C)CCC5C(C)CCC(C2C)C35OO4)c(OC)c1 (centres unmarked) [Hybrid 10a] | 1.6 ± 0.3 | 0.6 ± 0.1 | 2.7 | 1.5 ± 0.8 | 1.1 |  |  |  |  |  |  |  | 
CC(C)=CCCC(C)CCOC(=O)CCC(=O)OC1OC2OC3(C)CCC4C(C)CCC(C1C)C24OO3 (centres unmarked) [Hybrid 10d] | 4.8 ± 0.9 | 1.3 ± 0.8 | 3.7 | 1.7 ± 0.5 | 2.8 |  |  |  |  |  |  |  | 
CC(C)=CCCC(C)CCOC(=O)CCC(=O)OC1OC2OC3(C)CCC4C(C)CCC(C1C)C24OO3 (centres unmarked) [Hybrid 10e] |  |  | 3.2 |  | 2.7 |  |  |  |  | 5.1 ± 1.7 | 1.6 ± 0.9 | 1.9 ± 0.6 | 
CC(C)=CCCC(C)=CCOC(=O)CCC(=O)OC1OC2OC3(C)CCC4C(C)CCC(C1C)C24OO3 (centres unmarked) [Hybrid 10g] |  |  | 2.4 |  | 1.6 |  |  |  |  | 2.4 ± 0.9 | 1 ± 0.1 | 1.5 ± 0.7 | 
CC(C)=CCCC(C)CCOC1OC2OC3(C)CCC4C(C)CCC(C1C)C24O3 (centres unmarked) [Hybrid 11c] |  | 35.1 ± 2.5 |  |  |  |  |  |  |  |  |  |  | 
CC(C)=CCCC(C)=CCOC1OC2OC3(C)CCC4C(C)CCC(C1C)C24O3 (centres unmarked) [Hybrid 11f] |  | 76.3 ± 9.5 |  |  |  |  |  |  |  |  |  |  | 40
CC(C)=CCC/C(C)=C\CO [Nerol 7, nerol, reference compound] | 3.8 ± 1.5 | 0.5 ± 0.01 | 7.6 | 1.4 ± 0.03 | 2.7 |  |  |  |  |  |  |  | 
CC(=O)O[C@H]1C(=O)[C@@]2(C)[C@H]([C@H](OC(=O)c3ccccc3)[C@]3(O)C[C@H](OC(=O)[C@H](O)[C@@H](NC(=O)c4ccccc4)c4ccccc4)C(C)=C1C3(C)C)[C@]1(OC(C)=O)CO[C@@H]1C[C@@H]2O [PTX, paclitaxel, reference compound] | 78.9 ± 0.8 | 0.9 ± 0.04 | 87.7 | 2.3 ± 0.7 | 34.3 |  |  |  |  |  |  |  | 
C=C(C)[C@@H]1CC=C(CO)CC1 [Perillyl alcohol 5, perillyl alcohol, reference compound] | 52.5 ± 9.5 | 0.6 ± 0.04 | 87.5 | 1.2 ± 0.02 | 43.8 |  |  |  |  |  |  |  | 
